Laboratory results taken from patent publication US20160376240A1, “6 Phenyl or 6 Pyridin 3 YL Indazole Derivatives and Methods of Use” (ABBVIE INC., priority 2014, published 2016).

Molecular target: T1, TrkA (Homo sapiens, UniProt P04629)
T1 construct: purchased Invitrogen PV3144
Experiment: TrkA kinase inhibition, HTRF assay
Format: biochemical
Settings: LCK peptide substrate 125 nM, TrkA 2-10 nM pre-incubated with ATP 200 μM
Experimental: TrkA, TrkB, and TrkC enzymes were obtained from Invitrogen (as catalog numbers PV3144, PV3616, and PV3617, respectively). The ability of a compound to inhibit the enzymatic activity of the TrkA, TrkB, and TrkC enzymes was determined in separate assays. Enzyme activity was measured in an HTRF® (homogeneous time resolved fluorescence) assay, which detects enzymatic phosphorylation of a biotinylated synthetic peptide substrate (an LCK peptide analog, biotin-ahx-GAEEEIYAAFFA, from Genemed Synthesis). Phosphorylation is assessed by HTRF® in the presence of an anti-phosphotyrosine antibody conjugated to Eu^3+ cryptate (Cisbio) as donor fluorophore, and streptavidin conjugated to allophycocyanin (ProZyme) as acceptor fluorophore. The HTRF® signal was detected at two different wavelengths (620 nm and 665 nm) which were used to calculate the fluorescence ratio.
Each enzyme was titrated to a concentration optimized to ensure accurate measurement of the initial reaction rate. To allow the Trk enzymes to undergo activation and auto-phosphorylation, a 20 minute pre-incubation with ATP was carried out (at twice the final targeted enzyme and ATP concentration) prior to addition of test compound and the peptide substrate.
TrkA in vitro assays were performed by pre-incubating TrkA (2-10 nM) with ATP (200 μM) for 20 minutes at ambient temperature in 50 mM HEPES pH 7.4, 10 mM MgCl2, 2 mM MnCl2, 100 μM Na3VO4, 1 mM dithiothreitol, 0.01% BSA (bovine serum albumin). Then, to the activated Trk enzyme mixture was added the test compound in 2% dimethyl sulfoxide. After 10 minutes, the peptide substrate (125 nM) was added. After 1 hour, enzyme reactions were terminated by addition of equal reaction volumes of detection/stop reagent (containing 0.2 μg/mL anti-phosphotyrosine monoclonal antibody labeled with europium from Cisbio (catalog# PT66-K), and 4 μg/mL PhycoLink® Streptavidin-Allophycocyanin conjugate from ProZyme (catalog# PJ25S) in 60 mM EDTA in 40 mM HEPES pH 7.4, 480 mM KF, 0.01% Tween® 20 and 0.1% BSA bovine serum albumin) Reaction plates were stored at 4° C. overnight before reading the fluorescence ratio signal on a PerkinElmer EnVision™ fluorescence detector. Individual reaction wells were stopped at time points to obtain reaction rates. The test inhibitor compounds were assayed in duplicate, at half-log serial dilutions over a range of concentrations (e.g. starting at 50 μM or 5 μM as the high compound concentration). The percent Trk enzyme inhibition was calculated from the initial rates of the inhibited reactions relative to the uninhibited control. IC50 values were calculated by fitting the inhibition percent to the concentration of inhibitor [I] in the assay in equation 1 below, to solve for the IC50.
Inhibition %=100[I]/([I]+[IC50]) equation 1

T1 sequence (P04629 33-796): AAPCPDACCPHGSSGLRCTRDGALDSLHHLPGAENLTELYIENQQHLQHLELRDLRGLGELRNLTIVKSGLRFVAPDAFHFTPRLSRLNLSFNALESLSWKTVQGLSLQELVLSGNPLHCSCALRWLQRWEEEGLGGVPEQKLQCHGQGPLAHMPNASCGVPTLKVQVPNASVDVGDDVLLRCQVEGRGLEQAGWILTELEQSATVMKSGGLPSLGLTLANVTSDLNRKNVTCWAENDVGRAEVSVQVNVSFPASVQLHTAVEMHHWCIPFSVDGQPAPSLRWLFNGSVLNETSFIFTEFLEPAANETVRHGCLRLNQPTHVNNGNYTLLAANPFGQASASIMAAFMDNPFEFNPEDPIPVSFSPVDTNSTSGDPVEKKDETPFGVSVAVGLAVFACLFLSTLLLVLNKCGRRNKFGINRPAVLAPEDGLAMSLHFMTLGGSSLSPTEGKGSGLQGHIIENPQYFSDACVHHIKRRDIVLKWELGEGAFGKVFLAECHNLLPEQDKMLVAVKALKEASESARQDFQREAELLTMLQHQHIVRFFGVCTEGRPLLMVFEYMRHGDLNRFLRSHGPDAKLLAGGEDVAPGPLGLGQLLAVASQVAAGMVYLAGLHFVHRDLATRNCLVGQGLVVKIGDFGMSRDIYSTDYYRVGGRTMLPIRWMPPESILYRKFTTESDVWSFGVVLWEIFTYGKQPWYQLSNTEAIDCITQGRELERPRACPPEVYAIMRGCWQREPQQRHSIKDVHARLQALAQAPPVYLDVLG

| Molecule | IC50 |
| --- | --- |
| CC(=O)Nc1ccc(-c2cc(OC3CCOCC3)c3c(C)n[nH]c3c2)cc1N1CCN(C(=O)OC(C)C)CC1 [Example 146, isopropyl 4-{2-acetamido-5-[3-methyl-4-(tetrahydro-2H-pyran-4-yloxy)-1H-indazol-6-yl]phenyl}piperazine-1-carboxylate] | 4.43 nM |
| CC(Oc1cc(-c2ccc(C(N)=O)c(N3CCN(C(=O)C(C)(C)C)CC3)c2)cc2[nH]nc(N)c12)C(F)(F)F (centres unmarked) [Example 104, 4-{3-amino-4-[(1,1,1-trifluoropropan-2-yl)oxy]-1H-indazol-6-yl}-2-[4-(2,2-dimethylpropanoyl)piperazin-1-yl]benzamide] | 14 nM |
| CNC(=O)c1ccc(-c2cc(O[C@@H](C)C(F)(F)F)c3c(N)n[nH]c3c2)cc1N1CCN(C(=O)C(C)(C)C)CC1 [Example 45, 4-(3-amino-4-{[(2S)-1,1,1-trifluoropropan-2-yl]oxy}-1H-indazol-6-yl)-2-[4-(2,2-dimethylpropanoyl)piperazin-1-yl]-N-methylbenzamide] | 300 nM |
| CNC(=O)c1ccc(-c2cc(OC3CCOCC3)c3c(N)n[nH]c3c2)cc1N1CCN(CC(F)(F)C(F)(F)F)CC1 [Example 170, 4-[3-amino-4-(tetrahydro-2H-pyran-4-yloxy)-1H-indazol-6-yl]-N-methyl-2-[4-(2,2,3,3,3-pentafluoropropyl)piperazin-1-yl]benzamide] | 17.8 nM |
| NC(=O)c1ccc(-c2cc(OC3CCCC3)c3c(N)n[nH]c3c2)cc1N1CCN(C(=O)C2CC2)CC1 [Example 81, 4-[3-amino-4-(cyclopentyloxy)-1H-indazol-6-yl]-2-[4-(cyclopropylcarbonyl)piperazin-1-yl]benzamide] | 17.4 nM |
| C=CC(=O)Nc1ccc(-c2cc(OC3CCOCC3)c3c(C)n[nH]c3c2)cc1N1CCN(C2CCCCC2)CC1 [Example 131, N-{2-(4-cyclohexylpiperazin-1-yl)-4-[3-methyl-4-(tetrahydro-2H-pyran-4-yloxy)-1H-indazol-6-yl]phenyl}acrylamide] | 46.9 nM |
| CC(=O)Nc1ccc(-c2cc(OC3CCOCC3)c3c(C)n[nH]c3c2)cc1N1CCN(Cc2ccccc2)CC1 [Example 145, N-{2-(4-benzylpiperazin-1-yl)-4-[3-methyl-4-(tetrahydro-2H-pyran-4-yloxy)-1H-indazol-6-yl]phenyl}acetamide] | 12.6 nM |
| CNC(=O)c1ccc(-c2cc(OC3CCCC3)c3c(C)n[nH]c3c2)cc1N1CCN(C2CCCCC2)CC1 [Example 121, 2-(4-cyclohexylpiperazin-1-yl)-4-[4-(cyclopentyloxy)-3-methyl-1H-indazol-6-yl]-N-methylbenzamide] | 17.3 nM |
| CC(Oc1cc(-c2ccc(C(=O)NC3CC3)c(N3CCN(c4cccnc4)CC3)c2)cc2[nH]nc(N)c12)C(F)(F)F (centres unmarked) [Example 28, 4-{3-amino-4-[(1,1,1-trifluoropropan-2-yl)oxy]-1H-indazol-6-yl}-N-cyclopropyl-2-[4-(pyridin-3-yl)piperazin-1-yl]benzamide] | 41 nM |
| Cc1n[nH]c2cc(-c3ccc(C(N)=O)c(N4CCN(C(=O)OC(C)(C)C)CC4)c3)cc(OC3CCOCC3)c12 [Example 140, tert-butyl 4-{2-carbamoyl-5-[3-methyl-4-(tetrahydro-2H-pyran-4-yloxy)-1H-indazol-6-yl]phenyl}piperazine-1-carboxylate] | 31.9 nM |
| CC(=O)c1ccc(-c2cc(OC3CCOCC3)c3c(N)n[nH]c3c2)cc1N1CCN(c2nccs2)CC1 [Example 21, 1-{4-[3-amino-4-(tetrahydro-2H-pyran-4-yloxy)-1H-indazol-6-yl]-2-[4-(1,3-thiazol-2-yl)piperazin-1-yl]phenyl}ethanone] | 33.3 nM |
| CNC(=O)c1ccc(-c2cc(O[C@H](C)C(F)(F)F)c3c(N)n[nH]c3c2)cc1OCCOC1CCCCC1 [Example 105, 4-(3-amino-4-{[(2R)-1,1,1-trifluoropropan-2-yl]oxy}-1H-indazol-6-yl)-2-[2-(cyclohexyloxy)ethoxy]-N-methylbenzamide] | 3.23 nM |
| NC(=O)c1ccc(-c2ccc3c(N)n[nH]c3c2)cc1N1CCN(CC(=O)N2CCCC2)CC1 [Example 83, 4-(3-amino-1H-indazol-6-yl)-2-{4-[2-oxo-2-(pyrrolidin-1-yl)ethyl]piperazin-1-yl}benzamide] | 8330 nM |
| CNC(=O)c1ccc(-c2cc(O[C@H](C)C(F)(F)F)c3c(N)n[nH]c3c2)cc1N1CCOC(CC(C)C)C1 (stereo partly drawn) [Example 58, 4-(3-amino-4-{[(2R)-1,1,1-trifluoropropan-2-yl]oxy}-1H-indazol-6-yl)-2-(2-isobutylmorpholin-4-yl)-N-methylbenzamide] | 673 nM |
| CNC(=O)c1ccc(-c2cc(O[C@@H](C)C(F)(F)F)c3c(N)n[nH]c3c2)cc1N1CCN(c2cnccn2)CC1 [Example 46, 4-(3-amino-4-{[(2S)-1,1,1-trifluoropropan-2-yl]oxy}-1H-indazol-6-yl)-N-methyl-2-[4-(pyrazin-2-yl)piperazin-1-yl]benzamide] | 32.5 nM |
| CC(C)(C)C(=O)N1CCN(c2cc(-c3cc(OC4CCOCC4)c4c(N)n[nH]c4c3)ccc2C(=O)NC2CC2)CC1 [Example 25, 4-[3-amino-4-(tetrahydro-2H-pyran-4-yloxy)-1H-indazol-6-yl]-N-cyclopropyl-2-[4-(2,2-dimethylpropanoyl)piperazin-1-yl]benzamide] | 188 nM |
| NC(=O)c1ccc(-c2cc(OC3CCOCC3)c3c(N)n[nH]c3c2)cc1N1CCN(c2cncc(Cl)c2)CC1 [Example 8, 4-[3-amino-4-(tetrahydro-2H-pyran-4-yloxy)-1H-indazol-6-yl]-2-[4-(5-chloropyridin-3-yl)piperazin-1-yl]benzamide] | 4.42 nM |
| NC(=O)c1ccc(-c2ccc3c(N)n[nH]c3c2)cc1N1CCN(C2CC2)CC1 [Example 88, 4-(3-amino-1H-indazol-6-yl)-2-(4-cyclopropylpiperazin-1-yl)benzamide] | 8440 nM |

Continued by falling IC50, values first:

| IC50 | Molecule |
| --- | --- |
| 221 nM | NC(=O)c1ccc(-c2cc(OC3CCCC3)c3c(N)n[nH]c3c2)cc1N1CCC(C(N)=O)CC1 [Example 79, 1-{5-[3-amino-4-(cyclopentyloxy)-1H-indazol-6-yl]-2-carbamoylphenyl}piperidine-4-carboxamide] |
| 214 nM | CNC(=O)c1ccc(-c2cc(OC3CCCC3)c3c(C)n[nH]c3c2)cc1N1CCN(C(=O)OCC(C)C)CC1 [Example 128, isobutyl 4-{5-[4-(cyclopentyloxy)-3-methyl-1H-indazol-6-yl]-2-(methylcarbamoyl)phenyl}piperazine-1-carboxylate] |
| 95.8 nM | CNC(=O)c1ccc(-c2cc(OC3CCOCC3)c3c(C)n[nH]c3c2)cc1N1CCN(CC(F)(F)F)CC1 [Example 143, N-methyl-4-[3-methyl-4-(tetrahydro-2H-pyran-4-yloxy)-1H-indazol-6-yl]-2-[4-(2,2,2-trifluoroethyl)piperazin-1-yl]benzamide] |
| 36.4 nM | CC(=O)c1ccc(-c2cc(OC3CCOCC3)c3c(N)n[nH]c3c2)cc1N1CCN(CCC(C)(C)C)CC1 [Example 18, 1-{4-[3-amino-4-(tetrahydro-2H-pyran-4-yloxy)-1H-indazol-6-yl]-2-[4-(3,3-dimethylbutyl)piperazin-1-yl]phenyl}ethanone] |
| 31.2 nM | CNC(=O)c1ccc(-c2cc(OC(C)C(F)(F)F)c3c(N)n[nH]c3c2)cc1N1CCN(c2cnccn2)CC1 (centres unmarked) [Example 38, 4-{3-amino-4-[(1,1,1-trifluoropropan-2-yl)oxy]-1H-indazol-6-yl}-N-methyl-2-[4-(pyrazin-2-yl)piperazin-1-yl]benzamide] |
| 19.2 nM | 4-{3-amino-4-[(1,1,1-trifluoropropan-2-yl)oxy]-1H-indazol-6-yl}-2-(4-cyclopentylpiperazin-1-yl)benzamide [Example 102] |
| 9.12 nM | CNC(=O)c1ccc(-c2cc(OC3CCOCC3)c3c(C)n[nH]c3c2)cc1N1CCN(C(=O)OC)CC1 [Example 153, methyl 4-{2-(methylcarbamoyl)-5-[3-methyl-4-(tetrahydro-2H-pyran-4-yloxy)-1H-indazol-6-yl]phenyl}piperazine-1-carboxylate] |
| 8.06 nM | NC(=O)c1ccc(-c2cc(O[C@@H]3CCOC3)c3c(N)n[nH]c3c2)cc1N1CCN(c2cccnc2)CC1 [Example 68, 4-{3-amino-4-[(3R)-tetrahydrofuran-3-yloxy]-1H-indazol-6-yl}-2-[4-(pyridin-3-yl)piperazin-1-yl]benzamide] |
